Data taken from patent US20130202698A1 (NANJING SANHOME PHARMACEUTICAL CO., LTD., priority 2005, published 2013).
Read-outs that look alike come from different tables or passages of the source. Marks after values point to notes of the source that are not given here.

Experiments:
[1] = test system: righting reflex; experiment: Hypnotic effect, loss of righting reflex; assay type: in vivo, mice
Procedure: Thirty minutes after drug administration, the number of animals losing righting reflex (LORR) was recorded. […] Sodium pentobarbital was used at […] as the positive control.

[2] = test system: Beagle dogs
Procedure: In the studies, male and female Beagle dogs were treated at high doses of ornidazole enantiomers for 2 weeks, and then sacrificed for anatomical and pathological examinations. […] All the doses were administered in the levo- and racemate groups.

[3] = test system: trichomonas vaginalis; experiment: Pharmacodynamic study of trichomonas vaginalis infection in mice; assay type: in vivo; parameters: ED90: unit not given beside the values; conditions: for ED50: Trichomonas vaginalis; for ED90: dosage of 90% inhibition rate
Procedure: Male ICR mice were injected intraperitoneally with liquid containing 0.4 ml 3×10^6 trichomonas vaginalis (trichomonas vaginalis from clinical patients). The mice were randomly divided into 19 groups, each with 10. The mice in solvent control group were given blank solutions by tail vein injection. The treatment groups were injected intravenously at 2, 24, 48, and 72 hours after infection with active drugs. The animals were killed five days after infection. Washing offal, fluid was centrifuged, and microscopically examined for life larvae. Autopsy was performed to determine whether there was any visceral and abdominal abscess, microscopic examination was conducted to determine the number of live trichomoniasis in the abscess. […] The abscess formation was inhibited in the treatment groups[…] and the number of live trichomoniasis was reduced. Calculate the dosage of 50% (ED50) and 90% (ED90) inhibition rate.

[4] = test system: amoeba dysentery; experiment: Pharmacodynamic study of cecum amoeba infection in mice; assay type: in vivo; conditions: male ICR mice infected in the cecum, drug i.v. at 24, 48, 72 hours; for ED50: Mus musculus, iv, dosage of 50% inhibition rate; for ED90: dosage of 90% inhibition rate
Procedure: Male ICR mice were injected with liquid containing about 200,000 units of amoeba dysentery in the cecum. The mice were randomly divided into 19 groups, each with 10. The mice in solvent control group were given blank solutions by tail vein injection. The treatment groups were injected intravenously at 24, 48, 72 hours after infection with active drugs. The animals were killed six days after infection. Intestinal mucosal biopsies were done, and comparative studies of different stages of the amoeba were studied under microscope. […] Calculated the dosage of 50% (ED50) and 90% (ED90) inhibition rate.

[5] = Phase II clinical trial, intravenous, adverse events; assay type: in vivo, human; conditions: human phase II, I.V.
Procedure: A double-blinded randomized controlled trial was carried out to compare the adverse events between the I.V. levo-ornidazole and racemate treatment groups. […] The high rate of adverse events observed from the treatment by the racemic drug caused patient treatment non-compliant, which could be dangerous for life-threatening infections.

[6] = Phase II clinical trial, oral tablets, departments of stomatology, adverse events; assay type: in vivo, human; conditions: human phase II, oral, stomatology
Procedure: Double-blinded randomized controlled trials were carried out to compare the adverse events of oral levo-ornidazole with racemate treatment groups. Two separate studies were conducted for patients with infections from either department of stomatology or obstetrics/gynecology.

[7] = test system: spontaneous activities of mice; conditions: both, mouse, in vivo, iv
Procedure: Mice weighing 18-22 g, half male and half female, were placed in the laboratory 24 hours before the test to adapt to the environment. The room temperature was controlled at 24±2° C. Animals were fasted for 8 hours before testing, and then placed in a transparent cage. The number of spontaneous activities of mice was counted by an automatic device (model XZ-4 by Drug Research Institute of China Academy of Medical Sciences). Mice were pre-screened by counting their spontaneous activities for five minutes and unqualified mice were excluded. A total of 110 mice were selected and divided into 11 groups with 10 mice in each group.
Chlorpromazine (3 mg/kg) was used as the positive control. The dose volume was 0.2 mL/10 gram and infusion rate was 0.2 mL/10 seconds.

[8] = test system: motor balance and coordination; conditions: both, mouse, in vivo
Procedure: Motor balance and coordination were tested using a modified beam walking method. Mice were put on a smooth beam tilted at an angle of 70 degree. Mice passed the test by standing on the beam for 0.5 minute without falling off. All the mice were pre-screened before the studies, and a total of 110 mice were selected by passing the beam test in 3 consecutive tries. The selected mice were divided into 11 groups with 10 mice in each group (half male and half female). At certain time points after drug administration, mice were tested on the beam for 3 consecutive times. A mouse was counted as failing to the test if it fell off the beam for 2 or more times.
The dose volume was 0.2 mL/10 gram and infusion rate was 0.2 mL/10 seconds. Chlorpromazine was used as the positive control.

[9] = test system: plasma protein
[10] = male ICR mice infected intraperitoneally, drug i.v. at 2, 24, 48, 72 hours

Cc1ncc([N+](=O)[O-])n1CC(O)CCl (racemic) [Racemic ornidazole, 1-(3-Chloro-2-hydroxypropyl)-2-methyl-5-nitroimidazole]
Number of animals Loss of Righting Flex 30 min Post-dose ([1]; mice, 40 mg/kg, 10 animals): 0
Number of animals Loss of Righting Flex 30 min Post-dose ([1]; mice, 80 mg/kg, 10 animals): 0
Number of animals Loss of Righting Flex 30 min Post-dose ([1]; mice, 160 mg/kg, 10 animals, listed as Racemate): 6*^#
Number of animals Loss of Righting Flex 30 min Post-dose ([1]; mice, 160 mg/kg, 10 animals, listed as racemate): 6
Toxicity Severity ([2]; Beagle dogs, I.V. 200 mg/kg for 2 weeks): Moderate
ED50 ([3]; 72 h): 11.3 mg/kg
ED90 [3, 10]: 43.8
ED50 [4]: 11.4 mg/kg
ED90 [4]: 55.2
Adverse events reported (total) [5]: 42
Appetite drop, # of Patients with AE [5]: 0
Appetite drop, Incidence (%) [5]: 0.00%
Dizziness, # of Patients with AE [5]: 5
Dizziness, Incidence (%) [5]: 3.60%
Dry mouth, # of Patients with AE [5]: 2
Dry mouth, Incidence (%) [5]: 1.44%
Headache, # of Patients with AE [5]: 1
Headache, Incidence (%) [5]: 0.72%
Hypersomnia, # of Patients with AE [5]: 10
Hypersomnia, Incidence (%) [5]: 7.19^## %
Hypodynamia, # of Patients with AE [5]: 1
Hypodynamia, Incidence (%) [5]: 0.72%
Nausea, # of Patients with AE [5]: 1
Nausea, Incidence (%) [5]: 0.72%
Stomach discomfort, # of Patients with AE [5]: 1
Stomach discomfort, Incidence (%) [5]: 0.72%
Total incidence rate of adverse events [5]: 21.58%
Vertigo, # of Patients with AE [5]: 17
Vertigo, Incidence (%) [5]: 12.23^## %
Vomiting, # of Patients with AE [5]: 1
Vomiting, Incidence (%) [5]: 0.72%
WBC decline, # of Patients with AE [5]: 3
WBC decline, Incidence (%) [5]: 2.16%
Patients with adverse events (total) ([5]; out of 136 (levo) / 139 (racemate) patients): 30 patients
Bloating, # of Patients with AE [6]: 1
Bloating, Incidence (%) [6]: 0.71%
Constipation, # of Patients with AE [6]: 0
Constipation, Incidence (%) [6]: 0.00%
Drowsy, # of Patients with AE [6]: 3
Drowsy, Incidence (%) [6]: 2.13%
Dry mouth, # of Patients with AE [6]: 1
Dry mouth, Incidence (%) [6]: 0.71%
Headache, # of Patients with AE [6]: 1
Headache, Incidence (%) [6]: 0.71%
Hypersomnia, # of Patients with AE [6]: 6
Hypersomnia, Incidence (%) [6]: 4.26%
Hypodynamia, # of Patients with AE [6]: 1
Hypodynamia, Incidence (%) [6]: 0.71%
Loss of appetite, # of Patients with AE [6]: 1
Loss of appetite, Incidence (%) [6]: 0.71%
Nausea, # of Patients with AE [6]: 4
Nausea, Incidence (%) [6]: 2.84%
Palpitation, # of Patients with AE [6]: 1
Palpitation, Incidence (%) [6]: 0.71%
Pruritus, # of Patients with AE [6]: 1
Pruritus, Incidence (%) [6]: 0.71%
Rash, # of Patients with AE [6]: 2
Rash, Incidence (%) [6]: 1.42%
Sourregurgitation, # of Patients with AE [6]: 1
Sourregurgitation, Incidence (%) [6]: 0.71%
Stomach discomfort, # of Patients with AE [6]: 7
Stomach discomfort, Incidence (%) [6]: 4.96%
Stupor, # of Patients with AE [6]: 1
Stupor, Incidence (%) [6]: 0.71%
Total incidence rate of adverse events [6]: 17.73%
Vertigo, # of Patients with AE [6]: 2
Vertigo, Incidence (%) [6]: 1.42%
Vomiting, # of Patients with AE [6]: 1
Vomiting, Incidence (%) [6]: 0.71%
Patients with adverse events (total) ([6]; out of 139 (levo) / 141 (racemate) patients): 25 patients

Cc1ncc([N+](=O)[O-])n1C[C@@H](O)CCl [D-ornidazole, R-(+)-ornidazole]
Number of animals Loss of Righting Flex 30 min Post-dose ([1]; both, mouse, in vivo, 40 mg/kg, 30 min): 0
Number of animals Loss of Righting Flex 30 min Post-dose ([1]; both, mouse, in vivo, 80 mg/kg, 30 min): 0
Toxicity Severity ([2]; dog, in vivo, iv, 200 mg/kg): Severe
ED50 ([3]; male ICR mice infected intraperitoneally, drug i.v. at 2, 24, 48, 72 hours, dosage of 50% inhibition rate, read-out: ED50): 14.1 mg/kg
ED90 [3, 10]: 54.5
ED50 [4]: 13.3 mg/kg
ED90 [4]: 64.4
Spontaneous Activities (per 5 min) ([7]; 40 mg/kg, 0.5 h): 52 ± 23 per 5 min
Spontaneous Activities (per 5 min) ([7]; 40 mg/kg, 1 h): 44 ± 19 per 5 min
Spontaneous Activities (per 5 min) ([7]; 40 mg/kg, 2 h): 35 ± 20 per 5 min
Spontaneous Activities (per 5 min) ([7]; 40 mg/kg, 3 h): 47 ± 33 per 5 min
Spontaneous Activities (per 5 min) ([7]; 40 mg/kg, 4 h): 62 ± 31 per 5 min
Spontaneous Activities (per 5 min) ([7]; 80 mg/kg, 0.5 h): 25 ± 15 per 5 min
Spontaneous Activities (per 5 min) ([7]; 80 mg/kg, 1 h): 16 ± 21 per 5 min
Spontaneous Activities (per 5 min) ([7]; 80 mg/kg, 2 h): 17 ± 15 per 5 min
Spontaneous Activities (per 5 min) ([7]; 80 mg/kg, 3 h): 27 ± 17 per 5 min
Spontaneous Activities (per 5 min) ([7]; 80 mg/kg, 4 h): 34 ± 17 per 5 min
Spontaneous Activities (per 5 min) ([7]; 160 mg/kg, 0.5 h): 0 ± 0 per 5 min
Spontaneous Activities (per 5 min) ([7]; 160 mg/kg, 1 h): 0 ± 0 per 5 min
Spontaneous Activities (per 5 min) ([7]; 160 mg/kg, 2 h): 0 ± 0 per 5 min
Spontaneous Activities (per 5 min) ([7]; 160 mg/kg, 3 h): 3 ± 3 per 5 min
Spontaneous Activities (per 5 min) ([7]; 160 mg/kg, 4 h): 5 ± 5 per 5 min
Number of Animals Fall Off ([8]; 40 mg/kg, 0.5 h): 0
Number of Animals Fall Off ([8]; 40 mg/kg, 1 h): 1
Number of Animals Fall Off ([8]; 40 mg/kg, 2 h): 2
Number of Animals Fall Off ([8]; 40 mg/kg, 3 h): 3
Number of Animals Fall Off ([8]; 40 mg/kg, 4 h): 0
Number of Animals Fall Off ([8]; 80 mg/kg, 0.5 h): 3
Number of Animals Fall Off ([8]; 80 mg/kg, 1 h): 3
Number of Animals Fall Off ([8]; 80 mg/kg, 2 h): 2
Number of Animals Fall Off ([8]; 80 mg/kg, 3 h): 1
Number of Animals Fall Off ([8]; 80 mg/kg, 4 h): 0
Number of Animals Fall Off ([8]; 160 mg/kg, 0.5 h): 10##
Number of Animals Fall Off ([8]; 160 mg/kg, 1 h): 10##
Number of Animals Fall Off ([8]; 160 mg/kg, 2 h): 10##
Number of Animals Fall Off ([8]; 160 mg/kg, 3 h): 10##
Number of Animals Fall Off ([8]; 160 mg/kg, 4 h): 9##
Plasma protein binding, levo- vs dextro-ornidazole [9]: Similar
